Assay results taken from patent US9068949B2, “System and method for multiplex spectroscopic imaging” (Purdue Research Foundation, priority 2013, dated 2015).

System: intact mouse ear
Assay: DMSO penetration into intact mouse ear monitored by multiplex SRS imaging with MCR analysis
Type: in vivo
Conditions: DMSO applied to intact mouse ear
Procedure: In order to reduce ambiguity associated with MCR decomposition, a data augmentation matrix composed of repeating reference spectra, if needed, can be added to the spectral dataset D. The enhanced weight on pure reference spectra permits the MCR algorithm to selectively recover concentration profiles for corresponding Raman bands. An experiment was performed to test this. For tissue penetration data, pure DMSO spectrum and lipid spectrum were provided as initial estimations (reference spectra) for MCR analysis. A data augmentation matrix including reference spectra of DMSO and lipid was added to the spectral dataset in order to reduce ambiguity. For analysis of aqueous solutions of DMSO, a data augmentation matrix composed of reference spectra of DMSO was added to the spectral dataset in order to reduce MCR's ambiguity. A non-negativity constraint was used during the iterations.
FIGS. 10A, 10B, 11A, 11B, and 12 show experimental data of SRS imaging. Various aspects of parallel detection herein advantageously provide a speed of acquiring a spectrum at 30 μs time scale, or over 30,000 spectra per second. For imaging, this scheme avoids spectral profile distortion induced by sample movement, thus enabling observation of target molecules in a highly dynamic system. […] Every three minutes, one spectroscopic SRL image was acquired at the speed of 3 s per frame of 200×200 pixels. Importantly, although the C—H Raman spectra of DMSO and lipid are completely overlapped, spectroscopic SRS imaging, followed by employing MCR analysis as described above, permitted determining concentration maps of lipids and DMSO over time.
The scale bar in the 5-minute image in FIG. 10A is 20 μm. The arrow near the center of the 32-minute image in FIG. 10A indicates the location at which concentrations were measured for FIG. 12, discussed below.
The temporal dynamics of DMSO (circles) and lipid (squares) concentrations are shown. The curve represents fitting by a diffusion model. […]

C[S+](C)[O-] [DMSO, dimethyl sulfoxide]
structure of the fat cells after DMSO application (imaged up to 32 minutes): remained intact
distribution of DMSO in the adipose tissue (lipid-abundant layer ~50 μm beneath the skin surface, after 30 min): inter-cell distribution of DMSO was observed
DMSO penetration into the adipose tissue (lipid-abundant layer ~50 μm beneath the skin surface, in the first 5 min): Very small amounts
